Some test systems named below: HCC-2998 colon; HCT-15 colon; HL-60(TB) leukemia; NCI-H226 lung; RXF 393 renal; U251 CNS.
What all share (experiment): DTP human tumour cell line panel, 48 h

Values joined by “and” are separate entries in the source; they are usually repeats but may differ in a detail not shown here. Equal entries are not always repeated.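 48-hour exposure; five concentrations; linearly interpolated endpoints. GI50 marks 50% less growth. TGI denotes the concentration required for complete inhibition of growth.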

In the case of `CN(CCNC(=O)c1c[nH]c2c1Cc1ccccc1-2)CCNC(=O)c1c[nH]c2c1Cc1ccccc1-2`, the TGI (as a rule, the concentration giving total growth inhibition) was above 100 µM in the assay on HCC-2998 colon; above 100 µM in the assay on HCT-15 colon; 77.2 µM in the assay on HL-60(TB) leukemia; 71.9 µM in the assay with NCI-H226 lung; above 100 µM with RXF 393 renal; 34.7 µM with U251 CNS.
Regarding `OC1(c2ccc(Cl)cc2)c2ccccc2-c2nc3ccccc3n21` (stereo not drawn), the TGI with HCC-2998 colon was above 100 µM; in the assay with HCT-15 colon, above 100 µM; in the assay on HL-60(TB) leukemia it was above 100 µM; in the assay with NCI-H226 lung, above 100 µM; with RXF 393 renal, 55 µM; with U251 CNS, above 100 µM.
For the compound `C#CC(O)/C=C/CCCCCCC#CC/C=C\CC#CCCCCCCCCC(O)C#C` (stereo not drawn), the TGI in the assay on HCC-2998 colon was 9.8 µM; with HCT-15 colon, 10.4 µM; in the assay on HL-60(TB) leukemia, 3.71 µM; in the assay with NCI-H226 lung, 35.5 µM; with RXF 393 renal it was 31.6 µM; with U251 CNS, above 55.8 µM.
In the case of `Cc1cc2nc3c(C#N)c4c(c(-c5ccc(Cl)cc5)n3c2cc1C)CCC4`, the TGI in the assay on HCT-15 colon was 70.3 µM; in the assay with HL-60(TB) leukemia, 48.3 µM; in the assay with NCI-H226 lung it was 41 µM; in the assay with RXF 393 renal, above 100 µM; in the assay with U251 CNS, 78.4 µM.
Regarding `CN(C)c1ccc(/C=C/c2sc3ccccc3[n+]2C)cc1`, the GI50 – broadly, the concentration at which growth is held to half of that of the control – is 11.2 µM and 1.48 µM with HCC-2998 colon; 11 µM and 5.02 µM in the assay on RXF 393 renal; 0.479 µM and 0.121 µM with U251 CNS. Also, the TGI was 25.7 µM and 17.3 µM in the assay on HCC-2998 colon; 29.3 µM and 24.2 µM in the assay on HCT-15 colon; 15.4 µM and 7.31 µM in the assay on NCI-H226 lung; 27.8 µM and 36.3 µM in the assay with RXF 393 renal; 13.8 µM and > 100 µM in the assay with U251 CNS.
Consider `Cc1cc(S(=O)(=O)Nc2n[nH]c(N)n2)c(Cl)cc1Cl`, for which the total growth inhibition concentration (TGI) with HCC-2998 colon, with HCT-15 colon, with HL-60(TB) leukemia, with NCI-H226 lung, with RXF 393 renal and in the assay with U251 CNS was above 10 µM throughout.
`CCC(C)C1=C(O)[N+]2([O-])Oc3ccc(-c4c(O)c(O)c(-c5ccc(OC(C)=O)cc5)c(OC(C)=O)c4OC(C)=O)cc3OC2(C(C)CC)C(=O)N1O` (stereo not drawn): the TGI was 41.5 µM in the assay on HCC-2998 colon; above 50 µM with HCT-15 colon; above 50 µM in the assay with HL-60(TB) leukemia; above 50 µM in the assay on RXF 393 renal; above 50 µM with U251 CNS.
`Cc1ccc2nc(-c3ccc(C(C)(C)C)cc3)oc(=O)c2c1`: the TGI with HCC-2998 colon is 27.8 µM; with HCT-15 colon it was 54 µM; in the assay with HL-60(TB) leukemia, 40 µM; in the assay on RXF 393 renal it was 88.5 µM; in the assay on U251 CNS it was 32.5 µM.
In the case of `C/C(=N\Nc1nc2ccccc2s1)c1cc2ccccc2cn1`, the TGI with HCC-2998 colon is 27.2 µM; with HCT-15 colon it was 34.3 µM; in the assay on NCI-H226 lung, 7.56 µM; in the assay on RXF 393 renal it was 16 µM; in the assay with U251 CNS, above 100 µM.
For `NCCN1C(=O)c2ccccc2C1c1ccc(Cl)cc1` (stereo not drawn), the total growth inhibition concentration (TGI) in the assay with HCC-2998 colon, in the assay on HCT-15 colon, with HL-60(TB) leukemia, in the assay on RXF 393 renal and in the assay on U251 CNS was above 100 µM each time.
On to `CC(=O)OC1[C@H](OC(C)=O)C2=C(C)[C@@H](OC(C)=O)C[C@@]2(C(C)(C)O)[C@@H](OC(C)=O)[C@H]2[C@@]1(C)[C@@H](OC(C)=O)CC(OC(C)=O)[C@]21CO1` (stereo partly drawn), for which the TGI in the assay with HCT-15 colon, in the assay on HL-60(TB) leukemia, in the assay on NCI-H226 lung, in the assay on RXF 393 renal and in the assay on U251 CNS was above 100 µM each time.
On to `COc1nc2ccc(COc3ccc(C(=O)O)cc3)cc2nc1OC`, for which the TGI in the assay on HCC-2998 colon, in the assay on HCT-15 colon, in the assay with HL-60(TB) leukemia, in the assay with NCI-H226 lung and with U251 CNS was above 100 µM each time.
In the case of `COc1cc2c(/C=C3/C(=O)Nc4ccc(Cl)cc43)c(Cl)[nH]c2cc1C`, the TGI with HCT-15 colon was determined as 4.7 µM; in the assay with HL-60(TB) leukemia it was 13.6 µM; with NCI-H226 lung, 13.3 µM; in the assay with RXF 393 renal, 20.5 µM; with U251 CNS it was 4.62 µM.
On to `C[C@@H]1CC(=O)C[C@@H]2CC[C@H]3[C@@H]4CC[C@H](OC(=O)c5cccc6cc7ccccc7nc56)[C@H]4CC[C@@H]3[C@H]21`, for which the TGI with HCT-15 colon was 36.6 µM; in the assay with NCI-H226 lung, 63.7 µM; in the assay with RXF 393 renal it was 34.9 µM; with U251 CNS it was 19.8 µM.
Take `O=C1CN(c2cccc(Cl)c2)C(=O)CN1NCNN1CC(=O)N(c2cccc(Cl)c2)CC1=O`: the TGI with HCC-2998 colon, with HCT-15 colon, in the assay on HL-60(TB) leukemia, in the assay on RXF 393 renal and in the assay with U251 CNS was above 100 µM each time.
As to `CC(C)(NC(=O)OCc1ccccc1)C(=O)OC(=O)C(C)(C)NC(=O)OCc1ccccc1`, the TGI in the assay on HCT-15 colon, in the assay on NCI-H226 lung and with U251 CNS was above 100 µM each time.
Consider `COc1cc2c(cc1OC)C(=O)/C(=C/c1cc(C)cc(C)c1)C2`, for which the TGI in the assay on HCC-2998 colon is 2.14 µM; in the assay with HCT-15 colon it was above 47.8 µM; with NCI-H226 lung, 0.617 µM; with RXF 393 renal, 0.604 µM; in the assay with U251 CNS, above 81.8 µM.
As for `COc1ccc(C2C(=O)c3c(OC)cc(OC)cc3OC2c2cccnc2)cc1` (stereo not drawn), the TGI in the assay on HCC-2998 colon, in the assay on HCT-15 colon, in the assay with NCI-H226 lung and in the assay with RXF 393 renal was above 100 µM in each case.
Consider `C/C(=C/CC[C@]1(CO)CC[C@]2(C)[C@H](CC[C@@H]3[C@@]4(C)CC[C@H](OC5OC(CO)C(O)C(O)C5OC5OC(CO)C(O)C(O)C5O)C(C)(C)[C@@H]4CC[C@]32C)[C@H]1O)CO` (stereo partly drawn), for which the TGI in the assay with HCT-15 colon, in the assay with HL-60(TB) leukemia, in the assay on NCI-H226 lung, in the assay with RXF 393 renal and in the assay with U251 CNS was above 100 µM in each case.
Consider `COC(=O)Nc1nc2ccc(S(=O)(=O)N3CCOCC3)cc2[nH]1`, for which the total growth inhibition concentration (TGI) in the assay on HCT-15 colon, in the assay with HL-60(TB) leukemia, in the assay with NCI-H226 lung, with RXF 393 renal and in the assay on U251 CNS was above 100 µM in each case.
For `CC(C)=CC(=O)c1[nH]c2ccccc2c1CC(=O)NCCc1cncn1C`, the total growth inhibition concentration (TGI) is 81.5 µM in the assay on HCC-2998 colon; above 100 µM in the assay on HCT-15 colon; above 100 µM with NCI-H226 lung; 83.4 µM in the assay on RXF 393 renal; above 100 µM in the assay with U251 CNS.
